Measured values published in patent US12139520B2 (priority 2020, dated 2024).
Bridge positions count the residues as written; N and C are the ends. Square brackets hold non-standard residues; d marks the D form. Peptide text beside a SMILES is read from it. Hyp = O=C(O)[C@@H]1C[C@@H](O)CN1; Cit = NC(=O)NCCC[C@H](N)C(=O)O

Assays:
[1] = Physical stability of peptide analogues (Thioflavin T fibrillation); type: physicochemical; details: maximum ThT signal normalized between hAMY maximum and buffer background; 40° C., shaking, four days; pH 7 per table title
Outline: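 ThT fluorescence (450 nm excitation, 480 nm emission; 4 μM dye) was read every 10 min over four days at 40° C under 700 rpm shaking stress, after 1 h in pH 4 acetate or pH 7 phosphate (50 mM). Peak smoothed signal expressed as percent, scaled between buffer background and hAMY maximum.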

hAMY3 receptor = molecular target: T1, hAMY3 receptor (Homo sapiens, UniProt O60896+P30988); experiment: cAMP assay for in vitro receptor activation, hAMY3-R; type: cell-based; details: cAMP assay, hAMY3 receptor; read-out: hAMY3R EC50
T1 sequence (P30988 25-474): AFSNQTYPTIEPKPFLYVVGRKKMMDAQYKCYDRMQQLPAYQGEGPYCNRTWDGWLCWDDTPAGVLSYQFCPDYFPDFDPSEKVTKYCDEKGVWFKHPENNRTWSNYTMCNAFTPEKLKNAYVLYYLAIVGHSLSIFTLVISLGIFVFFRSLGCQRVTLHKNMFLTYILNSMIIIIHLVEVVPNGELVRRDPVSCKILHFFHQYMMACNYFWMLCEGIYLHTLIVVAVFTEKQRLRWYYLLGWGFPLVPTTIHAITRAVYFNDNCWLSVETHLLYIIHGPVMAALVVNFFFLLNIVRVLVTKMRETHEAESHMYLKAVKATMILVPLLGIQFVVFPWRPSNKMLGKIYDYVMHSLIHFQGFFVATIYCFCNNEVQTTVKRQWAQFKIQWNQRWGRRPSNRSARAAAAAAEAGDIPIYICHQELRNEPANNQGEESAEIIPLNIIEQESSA
T1 sequence (O60896 24-148 partner): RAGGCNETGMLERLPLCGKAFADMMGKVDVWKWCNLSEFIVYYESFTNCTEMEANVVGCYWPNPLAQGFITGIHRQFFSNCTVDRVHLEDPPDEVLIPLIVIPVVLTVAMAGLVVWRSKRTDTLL
Outline: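 Receptor activation was measured as cAMP accumulation in a monoclonal cell line stably overexpressing hAMY3. Stimulation with graded doses lasted 30 min at room temperature in the presence of 0.5 mM IBMX, with human amylin as positive control.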

hAM1 receptor = hAM1 receptor (Homo sapiens, UniProt O60895+Q16602); experiment: cAMP assay for in vitro receptor activation, hAM1-R; type: cell-based; details: cAMP assay, hAM1 receptor; read-out: hAM1R EC50
Chain of hAM1 receptor (Q16602 23-461): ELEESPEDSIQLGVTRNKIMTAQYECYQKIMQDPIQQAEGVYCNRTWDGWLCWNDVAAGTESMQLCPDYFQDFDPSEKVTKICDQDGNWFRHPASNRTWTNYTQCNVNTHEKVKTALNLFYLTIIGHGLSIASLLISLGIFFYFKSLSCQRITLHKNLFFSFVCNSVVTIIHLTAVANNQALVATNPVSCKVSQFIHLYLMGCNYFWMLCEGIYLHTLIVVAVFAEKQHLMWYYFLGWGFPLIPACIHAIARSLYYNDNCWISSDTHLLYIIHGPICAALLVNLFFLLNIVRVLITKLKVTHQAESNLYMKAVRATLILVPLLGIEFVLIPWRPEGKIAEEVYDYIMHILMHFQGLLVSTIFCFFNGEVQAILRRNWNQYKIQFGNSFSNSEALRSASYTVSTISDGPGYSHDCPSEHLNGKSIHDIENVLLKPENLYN
Chain of hAM1 receptor (O60895 43-175 partner): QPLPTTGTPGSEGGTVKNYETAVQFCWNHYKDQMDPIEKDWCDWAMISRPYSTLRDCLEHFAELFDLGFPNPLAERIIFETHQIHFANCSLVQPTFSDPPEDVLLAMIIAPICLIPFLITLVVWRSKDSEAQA
Outline: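 Read-out is intracellular cAMP as a measure of receptor activation. Cells stably overexpressing hAM1 were subcloned to a monoclonal line, then thawed and seeded at 8000 cells/well in DPBS with 0.05% casein and the phosphodiesterase inhibitor IBMX at 0.5 mM.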

Row | Structure (SMILES) | Max ThT signal (%) [1] [%] | EC50 (hAMY3 receptor) [nM] | EC50 (hAM1 receptor) [nM]
1 | CC[C@H](C)[C@H](NC(=O)[C@H](CCC(N)=O)NC(=O)[C@H](Cc1c[nH]cn1)NC(=O)[C@H](C)NC(=O)[C@H](CC(C)C)NC(=O)[C@H](CCCNC(=N)N)NC(=O)[C@H](CCC(N)=O)NC(=O)[C@@H](NC(=O)[C@@H](NC(=O)[C@@H]1CSSC[C@H](NC(=O)CN)C(=O)N[C@@H](CCCNC(=N)N)C(=O)N[C@@H](Cc2ccccc2)C(=O)NCC(=O)N[C@@H]([C@@H](C)O)C(=O)N1)[C@@H](C)O)C(C)C)C(=O)N[C@@H](Cc1ccc(O)cc1)C(=O)N[C@@H](CCC(N)=O)C(=O)N[C@@H](Cc1ccccc1)C(=O)N[C@H](C(=O)N[C@@H](CC(=O)O)C(=O)N[C@@H](CCCCN)C(=O)N[C@@H](CC(=O)O)C(=O)N[C@@H](CCCCN)C(=O)N[C@@H](CC(=O)O)C(=O)N[C@@H](CC(N)=O)C(=O)N[C@H](C(=O)N[C@@H](C)C(=O)N1CCC[C@H]1C(=O)N[C@@H](CCCNC(=N)N)C(=O)N[C@@H](CO)C(=O)N[C@@H](CC(N)=O)C(=O)N[C@H](C(=O)N[C@@H](CO)C(=O)N1CCC[C@H]1C(=O)N[C@@H](CC(N)=O)C(=O)NCC(=O)N[C@@H](Cc1ccc(O)cc1)C(N)=O)[C@@H](C)CC)C(C)C)[C@@H](C)O [compound 383] (H-GCRFGTCTVQRLAHQIYQFTDKDKDNVAPRSNISPNGY-NH2; disulfide 2-7; N-terminus assumed) | 9.600 | 0.034 | 5.94
2 | CC[C@H](C)[C@H](NC(=O)[C@H](CCC(N)=O)NC(=O)[C@H](Cc1c[nH]cn1)NC(=O)[C@H](C)NC(=O)[C@H](CC(C)C)NC(=O)[C@H](Cc1c[nH]c2ccccc12)NC(=O)[C@H](CCC(N)=O)NC(=O)[C@@H](NC(=O)[C@@H](NC(=O)[C@@H]1CSSC[C@H](NC(=O)CN)C(=O)N[C@@H](CCCNC(=N)N)C(=O)N[C@@H]([C@@H](C)O)C(=O)NCC(=O)N[C@@H]([C@@H](C)O)C(=O)N1)[C@@H](C)O)C(C)C)C(=O)N[C@@H](Cc1ccc(O)cc1)C(=O)N[C@@H](CCC(N)=O)C(=O)N[C@@H](Cc1ccccc1)C(=O)N[C@H](C(=O)N[C@@H](CC(=O)O)C(=O)N[C@@H](CCCCN)C(=O)N[C@@H](CC(=O)O)C(=O)N[C@@H](CCCCN)C(=O)N[C@@H](CC(=O)O)C(=O)N[C@@H](CC(N)=O)C(=O)N[C@H](C(=O)N[C@@H](C)C(=O)N1CCC[C@H]1C(=O)N[C@@H](CCCNC(=N)N)C(=O)N[C@@H](CO)C(=O)N[C@@H](CC(N)=O)C(=O)N[C@H](C(=O)N[C@@H](CO)C(=O)N1CCC[C@H]1C(=O)N[C@@H](CC(N)=O)C(=O)NCC(=O)N1C[C@H](O)C[C@H]1C(N)=O)C(C)C)C(C)C)[C@@H](C)O [compound 360] (H-GCRTGTCTVQWLAHQIYQFTDKDKDNVAPRSNVSPNG[Hyp]-NH2; disulfide 2-7) | 26.350 |  | > 5000
3 | CC[C@H](C)[C@H](NC(=O)[C@H](CCCCN)NC(=O)[C@H](CO)NC(=O)[C@H](CCCNC(=N)N)NC(=O)[C@@H]1CCCN1C(=O)[C@H](C)NC(=O)[C@@H](NC(=O)[C@H](CC(N)=O)NC(=O)[C@H](CC(=O)O)NC(=O)[C@H](CCCCN)NC(=O)[C@H](CC(=O)O)NC(=O)[C@H](CCCCN)NC(=O)[C@H](CC(=O)O)NC(=O)[C@@H](NC(=O)[C@H](Cc1ccccc1)NC(=O)[C@H](CCC(N)=O)NC(=O)[C@H](Cc1ccc(O)cc1)NC(=O)[C@@H](NC(=O)[C@H](CCC(N)=O)NC(=O)[C@H](Cc1c[nH]cn1)NC(=O)[C@H](C)NC(=O)[C@H](CC(C)C)NC(=O)[C@H](CCCNC(N)=O)NC(=O)[C@H](CCC(N)=O)NC(=O)[C@@H](NC(=O)[C@@H](NC(=O)[C@@H]1CSSC[C@H](NC(=O)CN)C(=O)N[C@@H](CCCNC(=N)N)C(=O)N[C@@H]([C@@H](C)O)C(=O)NCC(=O)N[C@@H]([C@@H](C)O)C(=O)N1)[C@@H](C)O)C(C)C)[C@@H](C)CC)[C@@H](C)O)C(C)C)C(=O)NCC(=O)N1CCC[C@H]1C(=O)N[C@@H](CC(N)=O)C(=O)NCC(=O)N1C[C@H](O)C[C@H]1C(N)=O [compound 299] (H-GCRTGTCTVQ[Cit]LAHQIYQFTDKDKDNVAPRSKIGPNG[Hyp]-NH2; disulfide 2-7; N-terminus assumed) | 26.550 |  | > 5000

The remaining lines, values ahead:

Row | Max ThT signal (%) [1] [%] | EC50 (hAMY3 receptor) [nM] | EC50 (hAM1 receptor) [nM] | Structure (SMILES)
4 | 17.000 | 0.012 | > 5000 | CC[C@H](C)[C@H](NC(=O)[C@H](CCC(N)=O)NC(=O)[C@H](Cc1c[nH]cn1)NC(=O)[C@H](C)NC(=O)[C@H](CC(C)C)NC(=O)[C@H](Cc1c[nH]c2ccccc12)NC(=O)[C@H](CCC(N)=O)NC(=O)[C@@H](NC(=O)[C@@H](NC(=O)[C@@H]1CSSC[C@H](NC(=O)[C@@H](N)CCCCN)C(=O)N[C@@H](CC(N)=O)C(=O)N[C@@H]([C@@H](C)O)C(=O)N[C@@H](C)C(=O)N[C@@H]([C@@H](C)O)C(=O)N1)[C@@H](C)O)C(C)C)C(=O)N[C@@H](Cc1ccc(O)cc1)C(=O)N[C@@H](CCC(N)=O)C(=O)N[C@@H](Cc1ccccc1)C(=O)N[C@H](C(=O)N[C@@H](CC(=O)O)C(=O)N[C@@H](CCCCN)C(=O)N[C@@H](CC(=O)O)C(=O)N[C@@H](CCCCN)C(=O)N[C@@H](CC(=O)O)C(=O)N[C@@H](CC(N)=O)C(=O)N[C@H](C(=O)N[C@@H](C)C(=O)N1CCC[C@H]1C(=O)N[C@@H](CCCNC(=N)N)C(=O)N[C@H](C(=O)N[C@@H](CCCCN)C(=O)N[C@H](C(=O)NCC(=O)N[C@@H](CO)C(=O)N[C@@H](CC(N)=O)C(=O)NCC(=O)N1C[C@H](O)C[C@H]1C(N)=O)C(C)C)[C@@H](C)O)C(C)C)[C@@H](C)O [compound 312] (H-KCNTATCTVQWLAHQIYQFTDKDKDNVAPRTKVGSNG[Hyp]-NH2; disulfide 2-7; N-terminus assumed)
5 | 21.700 |  | > 5000 | CC[C@H](C)[C@H](NC(=O)[C@H](CCC(N)=O)NC(=O)[C@H](CCC(=O)O)NC(=O)[C@H](C)NC(=O)[C@H](CC(C)C)NC(=O)[C@H](Cc1c[nH]c2ccccc12)NC(=O)[C@H](CCC(N)=O)NC(=O)[C@@H](NC(=O)[C@@H](NC(=O)[C@@H]1CSSC[C@H](NC(=O)[C@@H](N)CCCCN)C(=O)N[C@@H](CC(N)=O)C(=O)N[C@@H]([C@@H](C)O)C(=O)N[C@@H](C)C(=O)N[C@@H]([C@@H](C)O)C(=O)N1)[C@@H](C)O)C(C)C)C(=O)N[C@@H](Cc1ccc(O)cc1)C(=O)N[C@@H](CCC(N)=O)C(=O)N[C@@H](Cc1ccccc1)C(=O)N[C@H](C(=O)N[C@@H](CC(=O)O)C(=O)N[C@@H](CCCCN)C(=O)N[C@@H](CC(=O)O)C(=O)N[C@@H](CCCCN)C(=O)N[C@@H](CC(=O)O)C(=O)N[C@@H](CC(N)=O)C(=O)N[C@H](C(=O)N[C@@H](C)C(=O)N1CCC[C@H]1C(=O)N1CCC[C@H]1C(=O)N[C@@H](Cc1ccc(O)cc1)C(=O)N[C@@H](CC(N)=O)C(=O)N[C@@H](CCC(=O)O)C(=O)NCC(=O)N[C@@H](CO)C(=O)N[C@@H](CC(N)=O)C(=O)NCC(=O)N1C[C@H](O)C[C@H]1C(N)=O)C(C)C)[C@@H](C)O [compound 321] (H-KCNTATCTVQWLAEQIYQFTDKDKDNVAPPYNEGSNG[Hyp]-NH2; disulfide 2-7; N-terminus assumed)
6 | 2.950 |  | > 5000 | CC[C@H](C)[C@H](NC(=O)[C@H](CCC(N)=O)NC(=O)[C@H](Cc1c[nH]cn1)NC(=O)[C@H](C)NC(=O)[C@H](CC(C)C)NC(=O)[C@H](Cc1c[nH]c2ccccc12)NC(=O)[C@H](CCC(N)=O)NC(=O)[C@@H](NC(=O)[C@@H](NC(=O)[C@@H]1CSSC[C@H](NC(=O)[C@@H](N)CCCCN)C(=O)N[C@@H](CC(N)=O)C(=O)N[C@@H]([C@@H](C)O)C(=O)N[C@@H](C)C(=O)N[C@@H]([C@@H](C)O)C(=O)N1)[C@@H](C)O)C(C)C)C(=O)N[C@@H](Cc1ccc(O)cc1)C(=O)N[C@@H](CCC(N)=O)C(=O)N[C@@H](C)C(=O)N[C@H](C(=O)N[C@@H](CC(=O)O)C(=O)N[C@@H](CCCCN)C(=O)N[C@@H](CC(=O)O)C(=O)N[C@@H](CCCCN)C(=O)N[C@@H](CC(=O)O)C(=O)N[C@@H](CC(N)=O)C(=O)N[C@H](C(=O)N[C@@H](C)C(=O)N1CCC[C@H]1C(=O)N1CCC[C@H]1C(=O)N[C@H](C(=O)N[C@@H](CC(N)=O)C(=O)N[C@H](C(=O)NCC(=O)N[C@@H](CO)C(=O)N[C@@H](CC(N)=O)C(=O)NCC(=O)N1C[C@H](O)C[C@H]1C(N)=O)C(C)C)[C@@H](C)O)C(C)C)[C@@H](C)O [compound 338] (H-KCNTATCTVQWLAHQIYQATDKDKDNVAPPTNVGSNG[Hyp]-NH2; disulfide 2-7; N-terminus assumed)
